Results: ChEMBL document CHEMBL3351363 (J Med Chem, 2014)

Columns and labels:
[1] = target: T1, Muscarinic acetylcholine receptor M2 (Homo sapiens, UniProt P08172); assay: Displacement of [3H]NMS from human M2 receptor expressed in CHO cells by microplate scintillation counting based radioligand binding assay; type: cell-based
T1 sequence (P08172 whole entry): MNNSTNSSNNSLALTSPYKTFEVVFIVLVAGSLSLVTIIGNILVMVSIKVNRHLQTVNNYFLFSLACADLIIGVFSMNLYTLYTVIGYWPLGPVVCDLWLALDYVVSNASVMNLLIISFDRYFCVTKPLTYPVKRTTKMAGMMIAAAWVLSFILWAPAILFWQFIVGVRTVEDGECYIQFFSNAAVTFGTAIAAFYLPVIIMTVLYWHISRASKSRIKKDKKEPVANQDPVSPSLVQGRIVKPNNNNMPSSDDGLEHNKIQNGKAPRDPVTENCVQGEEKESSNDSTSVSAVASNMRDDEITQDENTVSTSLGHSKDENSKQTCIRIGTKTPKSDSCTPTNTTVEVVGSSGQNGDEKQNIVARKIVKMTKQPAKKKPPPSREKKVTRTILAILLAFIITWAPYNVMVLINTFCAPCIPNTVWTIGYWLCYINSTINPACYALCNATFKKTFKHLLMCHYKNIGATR

[2] = target: T2, Muscarinic acetylcholine receptor M4 (Homo sapiens, UniProt P08173); assay: Displacement of [3H]NMS from human M4 receptor expressed in CHO cells by microplate scintillation counting based radioligand binding assay; type: cell-based
T2 sequence (P08173 whole entry): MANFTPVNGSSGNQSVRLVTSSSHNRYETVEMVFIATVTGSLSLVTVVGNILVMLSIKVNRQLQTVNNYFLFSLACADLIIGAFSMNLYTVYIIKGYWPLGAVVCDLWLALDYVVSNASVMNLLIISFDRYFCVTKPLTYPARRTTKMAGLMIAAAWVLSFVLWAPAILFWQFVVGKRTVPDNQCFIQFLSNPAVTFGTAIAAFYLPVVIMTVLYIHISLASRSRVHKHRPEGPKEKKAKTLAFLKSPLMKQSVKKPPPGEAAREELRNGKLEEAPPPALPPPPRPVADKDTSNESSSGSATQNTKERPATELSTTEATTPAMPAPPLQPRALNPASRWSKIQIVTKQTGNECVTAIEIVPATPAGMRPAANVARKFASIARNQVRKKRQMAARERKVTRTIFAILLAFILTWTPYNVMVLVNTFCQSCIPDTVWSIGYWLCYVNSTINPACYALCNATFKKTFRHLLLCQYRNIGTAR

[3] = target: T3, Muscarinic acetylcholine receptor M5 (Homo sapiens, UniProt P08912); assay: Displacement of [3H]NMS from human M5 receptor expressed in CHO cells by microplate scintillation counting based radioligand binding assay; type: cell-based
T3 sequence (P08912 whole entry): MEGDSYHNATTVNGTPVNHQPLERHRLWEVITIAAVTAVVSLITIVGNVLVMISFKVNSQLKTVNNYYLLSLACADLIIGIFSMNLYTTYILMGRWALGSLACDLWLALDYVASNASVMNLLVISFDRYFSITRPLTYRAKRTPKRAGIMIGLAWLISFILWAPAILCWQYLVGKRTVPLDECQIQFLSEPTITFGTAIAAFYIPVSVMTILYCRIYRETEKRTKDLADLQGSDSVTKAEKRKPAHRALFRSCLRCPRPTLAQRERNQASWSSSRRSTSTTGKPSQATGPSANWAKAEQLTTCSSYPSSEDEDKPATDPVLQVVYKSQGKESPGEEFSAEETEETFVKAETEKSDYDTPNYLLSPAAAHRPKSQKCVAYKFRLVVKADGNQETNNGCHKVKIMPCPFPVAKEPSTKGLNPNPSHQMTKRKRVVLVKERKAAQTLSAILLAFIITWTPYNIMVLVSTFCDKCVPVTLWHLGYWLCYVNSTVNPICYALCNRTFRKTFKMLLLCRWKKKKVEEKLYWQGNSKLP

[4] = target: T4, Muscarinic acetylcholine receptor M1 (Homo sapiens) (UniProt P11229); assay: Agonist activity at human M1 receptor expressed in HEK293T cells by BRET based Gq protein engagement assay relative carbachol; type: cell-based; details: HEK-293T
T4 sequence (whole entry): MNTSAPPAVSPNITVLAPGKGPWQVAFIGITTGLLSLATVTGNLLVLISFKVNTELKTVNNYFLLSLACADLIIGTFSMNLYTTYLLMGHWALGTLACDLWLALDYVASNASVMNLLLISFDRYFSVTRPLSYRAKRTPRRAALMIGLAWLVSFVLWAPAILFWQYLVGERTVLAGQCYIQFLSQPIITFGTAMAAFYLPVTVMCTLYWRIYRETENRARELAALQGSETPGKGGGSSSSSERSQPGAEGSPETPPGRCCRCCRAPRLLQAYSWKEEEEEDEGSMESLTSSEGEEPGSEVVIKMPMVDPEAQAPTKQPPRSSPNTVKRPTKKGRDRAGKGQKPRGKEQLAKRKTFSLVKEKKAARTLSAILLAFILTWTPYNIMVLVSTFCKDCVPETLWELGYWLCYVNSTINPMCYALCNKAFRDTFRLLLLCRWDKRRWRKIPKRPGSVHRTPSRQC

[5] = target: T2, Muscarinic acetylcholine receptor M4; assay: Antagonist activity at human M4 receptor expressed in HEK293T cells assessed as inhibition of carbachol-induced response by BRET based Gq protein engagement assay; type: cell-based, HEK-293T
[6] = target: T2, Muscarinic acetylcholine receptor M4; assay: Antagonist activity at human M4 receptor expressed in HEK293T cells assessed as inhibition of xanomeline-induced response by BRET based Gq protein engagement assay; type: cell-based, HEK-293T
[7] = target: T2, Muscarinic acetylcholine receptor M4; assay: Antagonist activity at human M4 receptor expressed in HEK293T cells assessed as inhibition of xanomeline-induced response by beta-arrestin engagement assay; type: cell-based, HEK-293T
[8] = target: T2, Muscarinic acetylcholine receptor M4
[9] = target: T5, Muscarinic acetylcholine receptor M4 (Homo sapiens) (UniProt P08173); assay: Agonist activity at human M4 receptor expressed in HEK293T cells by BRET based Gi protein activation assay relative to carbachol; details: HEK-293T
T5 sequence (whole entry): T2 sequence (P08173 whole entry)

Ki [1]: 0.204 µM
Ki [2]: 0.209 µM
Ki [3]: 5.37 µM
Emax [4]: 81%
IC50 [5]: 2.24 µM
IC50 [6]: 120 µM
IC50 [7]: 7.59 µM
IC50 [8]: 47.9 µM
Emax [9]: 46%
Structure (SMILES): CCCCC1CCN(CCCN2C(=O)CCc3ccccc32)CC1
